# Test results published in article PMC4361473, “A New System for Profiling Drug-Induced Calcium Signal Perturbation in Human Embryonic Stem Cell–Derived Cardiomyocytes” (Journal of Biomolecular Screening, 2015).
# Legend:
# Cytiva hSCCMs [1] = assay: SALVO profiling of drug-evoked Ca2+ signal perturbation (fluo-4 confocal imaging); details: for EC20 AHI: 20% change from control in amplitude heterogeneity index; for EC20 AHI / EC20 Synch / EC20 ITN / EC20 THI / EC20 Rate: regression of Figure 3 data; for EC20 Synch: 20% change from control in intercellular synchronization; for EC20 ITN: 20% change from control in intertransient noise; for EC20 THI: 20% change from control in temporal heterogeneity index; for EC20 Rate: drug concentration producing a 20% change from control (no drug) in Ca2+ oscillation rate; for SALVO toxicity score, rank order of the extent of Ca2+ perturbation: five-parameter SALVO output integrated over 0.1-1000 nM, normalized to control; for Effect on Ca2+ handling (SALVO parameters): spontaneously oscillating Cytiva, concentrations up to 30 µM
# Excerpt: Cytiva hSCCMs were derived from monolayer differentiation of an H7 hESC cell line that had been expanded under feeder-free conditions and then subjected to a proprietary differentiation protocol (GE Healthcare, Piscataway, NJ, USA).[13] […] Cells were thawed and seeded into 7-mm^2 chambers created by the adherence of silicon gaskets (CultureWell MultiWell 3 mm in diameter, 1-mm-depth inserts [Life Technologies]) on glass-bottomed culture chambers (In Vitro Scientific, Sunnyvale, CA, USA) that had been precoated with Matrigel (BD Biosciences, Franklin Lakes, NJ, USA), Franklin Lakes, NJ, USA diluted 1:30 (v/v) in Knockout DMEM (Life Technologies, Carlsbad, CA, USA). […] Cells were allowed to adhere to the coverslip for 2 h before the dish was filled with RPMI/B27 (2 mL). Medium was exchanged every 48 h.
# Cells were incubated with fluo-4 AM (5 µM) (Life Technologies) for 1 h at 37°C before coverslips were flooded with RPMI/B27 (2 mL). […] Cells were maintained at 37 °C throughout experiments. […] The application of caffeine (5 mM final concentration) was used to trigger sarcoplasmic reticulum (SR) Ca^2+ release and thereby estimate the intra-SR Ca^2+ store load.
# Taking our lead from Uhlen’s method of using spectral analysis to investigate the organization of Ca^2+ signals,[14] we developed SALVO to decode the spatiotemporal patterning of Ca^2+ oscillations within individual cells and across multicellular populations. SALVO outputs 30 parameters that describe Ca^2+ signal organization,[15] but for the purposes of this study, we focused on five parameters: oscillation rate (rate, Hz) and four other parameters that quantify the amplitude and temporal patterning of Ca^2+ oscillation: (1) amplitude heterogeneity index (AHI) and (2) temporal heterogeneity index (THI), statistical assessments of signal amplitude and temporal variability within single cells, respectively; (3) intertransient noise (ITN), defined as the Ca^2+ signal variability occurring between Ca^2+ oscillations and that extends the use of signal variability (SV) to measure point-by-point differences in very low-amplitude Ca^2+ signals[6],[10],[12]; and (4) synchronization, an index of the temporal coincidence of Ca^2+ oscillation maxima occurring across cells in the population. The calculation of these parameters is described in Supplementary Figure S1. SALVO is implemented using a Python-based computer program.[15] The detection of signal maxima and minima over a 30-s period in data obtained from 6 to 20 cells in each instance was performed using SALVO’s autodetection algorithms (based on spline detect or threshold detection methods) or by manual assignation of the start, peak, and end of each Ca^2+ spike. SALVO outputs were archived and interrogated using a custom-built SQL-based database system (DB Miner, CHG, NCS, SBJ).
# Baseline assessments of Ca^2+ signals in fluo-4–loaded cells prior to the addition of drug (control) were established as described above.
# After each addition and following a period of equilibration (approximately 90 s), fluo-4–dependent Ca^2+ signals were acquired for 30 s. Using this protocol, the same population of cells was imaged throughout the entire drug addition sequence.
# In all experiments, operators were blinded to the identities of the drugs under test throughout all phases of postexperimental data analysis.
# Supplementary Table 2. EC20 values for Ca2+ perturbation.
# Drug concentrations (nM) that produced a 20% change from control values (no drug) were calculated for each SALVO parameter from regression analysis of […]
# The effective therapeutic plasma concentration of free drug (ETPCunbound, nM) was calculated in Supplementary Table 1.
# Calculate percentage effect size (E) for each SALVO parameter, normalized to Ew = E x λ control conditions, at each drug concentration Effect size (E,%) λ
# Cumulative Ew for drug concentrations of 0.1, 1, 10, 100 and 1000 nM for The relationship between E and λ is given by […]
# Cytiva hSCCMs [2] = assay: Whole-cell current-clamp recording of spontaneous action potentials (APD90); assay type: cell-based, human; details: drug at EC20 concentration, 3 min; Fridericia-corrected; blebbistatin-immobilized cells
# Protocol: Cells in 35-mm glass-bottomed culture dishes containing a superfusion insert (AutoMate PCP-1; Digitimer Ltd., Welwyn Garden City, UK) were mounted on the stage of an inverted microscope (CKX-41; Olympus, Tokyo, Japan) and were superfused with normal Tyrode (NT) solution (containing [in mM] NaCl, KCl, MgCl2 [1], CaCl2 [2], HEPES [10], glucose; pH 7.4 with NaOH) or NT-containing drugs maintained at 37 °C using a heated jacket.
# Cells were whole-cell clamped with 3- to 4-MΩ patches and an intrapipette solution (containing in [mM] KCl, MgCl2 [1.75], CaCl2 [5.37], EGTA [10], HEPES [10], and Na2ATP [4]; pH 7.2 with KOH) in current-clamp (IC) mode using a CV-7B headstage and MultiClamp 700B amplifier controlled by MultiClamp software (Molecular Devices, Sunnyvale, CA). Data were digitized and acquired using a Digidata 1322a card and pClamp software, respectively (Molecular Devices). Action potentials were sampled at a rate of 20 kHz and low pass (Bessel) filtered at 10 kHz.
# Spontaneous cell contracture was terminated using blebbistatin (5 µM, 10 min), an agent that inhibits myofilament shortening and thereby negates patch-clamp recording instability but preserves normal Ca^2+ cycling.[20] […] Action potential (AP) recordings from blebbistatin-immobilized cells were taken under control (no-drug) conditions (1 min) and following the switch to drug-containing NT. APD90, corrected for AP cycle length using Fridericia’s method (APD90(corr) = APD90/cycle length^[…]), was calculated from five consecutive APs following a 3-min exposure of the cells to drug.
# Figure 4. Investigating the effect of cardiovascular-active drugs on Cytiva APD90. (A) Cells were exposed to drugs at EC20 concentrations for 3 min (Suppl. Table S2). APD90 values were corrected for beat period using Fridericia’s algorithm. Data points represent individual paired experiments (n = 6). Representative control (gray) and drug-treated (black) action potential traces are shown. (B) APD90 plotted as the percentage change relative to the paired control value (no drug). *p < 0.05. **p < 0.01.
# [3] = Effective therapeutic plasma concentration (ETPC, ETPCunbound); assay type: in vivo, human
# Excerpt: There is also the issue regarding the relevance of drug potency determined in vitro to clinical dosing in humans. Guo and colleagues[25],[27] used an impedance-derived index of arrhythmic beating in hSCCMs to derive a predicted proarrhythmic score (PPS) that took into account the therapeutically relevant total concentration of drug in human plasma (defined as Ceff). More recently, Clements and Thomas[13] used a similar approach to generate a predictive risk score (PRS) based on their measurement of field potential duration (FPD) in Cytiva.
# Supplementary Table 1. Calculating the free plasma concentration of […]
# described by Redfern et al. (Redfern et al. (2003) Cardiovasc. Res. 58:32-45) was used to calculate the levels of free drug (ETPCunbound). ETPC for nadolol and valdecoxib were from Krukemyer et al. (Pharm. Res. (1990) 9:953-956) and Yuan et al. (Drug Metab. Disp. (2002) 30:1013-1021), respectively. The values for drug-protein binding were obtained from DrugBank (www.drugbank.ca).
# [4] = maximal effective therapeutic plasma concentration; ref Redfern et al. (2003) Cardiovasc. Res. 58:32-45; cited from earlier work
# [5] = parameters: method as in DrugBank (www.drugbank.ca); details: from drug-protein binding values; ref DrugBank (www.drugbank.ca); cited from earlier work
# [6] = categories assigned by Redfern and colleagues; cited from earlier work
# hSCCM = test system: hSCCM; parameters: method as in PMID 24052561; details: cited from earlier work
# [7] = free plasma concentration calculated from ETPC and free drug %, Supplementary Table 1
Effect on APD90 (action potential duration) (Cytiva hSCCMs [2]),"ETPCunbound ([3]; effective therapeutic plasma concentration of free drug, as listed in Supplementary Table 2)","ETPCunbound [3, 7]",PPS rank order (Cytiva hSCCMs [1]; PPS = ETPCunbound/EC20),SMILES,EC20 AHI (Cytiva hSCCMs [1]),EC20 Synch (Cytiva hSCCMs [1]),EC20 ITN (Cytiva hSCCMs [1]),EC20 THI (Cytiva hSCCMs [1]),Predicted proarrhythmic score (PPS) (Cytiva hSCCMs [1]; PPS = ETPCunbound/EC20),EC20 Rate (Cytiva hSCCMs [1]),"SALVO toxicity score, rank order of the extent of Ca2+ perturbation (Cytiva hSCCMs [1])",Effect on Ca2+ handling (SALVO parameters) (Cytiva hSCCMs [1]),ETPC [4],Free drug [5],TdP risk category [6],Hazard identification by impedance measurements (hSCCM)
increased APD90,8 nM,0.2 nM,,"COc1ccc(CCN2CCC(Nc3nc4ccccc4n3Cc3ccc(F)cc3)CC2)cc1 [Astemizole, astemizole]",100 nM,15 nM,0.32 µM,55 nM,< 1,50 nM,astemizole > thioridazine > cisapride > flecainide > valdecoxib > sotalol > nadolol,large effect sizes in multiple parameters,8 nM,2%,category 2,
increased APD90,,3 nM,thioridazine > cisapride > valdecoxib,"COc1cc(N)c(Cl)cc1C(=O)NC1CCN(CCCOc2ccc(F)cc2)CC1OC (centres unmarked) [Cisapride, cisapride]",40 nM,5 nM,> 30 µM,105 nM,,445 nM,astemizole > thioridazine > cisapride > flecainide > valdecoxib > sotalol > nadolol,large effect sizes in multiple parameters,129 nM,2%,category 2,
,,,,CS(=O)(=O)c1ccc(C2=C(c3ccccc3)C(=O)OC2)cc1 [rofecoxib],,,,,,,,inconsistent bioactivity,,,,failed to identify the potential hazard
